Laboratory results from the NIST ThermoML archive (doi:10.1016/j.jct.2018.06.014).
± gives the expanded uncertainty stated by the source.

Assays:
[1] = for Normal melting temperature: Crystal 1, DTA; for Glass transition temperature: DSC
[2] = Molar enthalpy of transition or fusion; settings: Crystal 1; DSC

| Compound | Normal melting temperature [1] [°C] | Molar enthalpy of transition or fusion [2] [kcal/mol] | Glass transition temperature [1] [°C] |
| --- | --- | --- | --- |
| CCCC[N+]1(C)CCCCC1.O=S(=O)([N-]S(=O)(=O)C(F)(F)F)C(F)(F)F | – | – | -72.00 ± 2 |
| CCCC[N+]1(C)CCCCC1.O=S(=O)([O-])C(F)(F)F [1-butyl-1-methylpiperidinium trifluoromethanesulfonate] | 36.00 ± 2 | 5.5 ± 0.478 | – |
| COP(=O)([O-])OC.Cn1cc[n+](C)c1 [1,3-dimethylimidazolium dimethylphosphate] | – | – | -63.00 ± 2 |

Continued, in another order:

| Normal melting temperature [1] [°C] | Molar enthalpy of transition or fusion [2] [kcal/mol] | Compound | Glass transition temperature [1] [°C] |
| --- | --- | --- | --- |
| 39.00 ± 2 | 3.35 ± 0.478 | CCN(C)CC.CS(=O)(=O)O [diethylmethylammonium methanesulfonate] | – |
| 18.00 ± 2 | 6.21 ± 0.717 | CCCCn1cc[n+](C)c1.O=S(=O)([O-])C(F)(F)F [1-butyl-3-methylimidazolium trifluoromethanesulfonate] | – |
| -5.00 ± 2 | 4.06 ± 0.478 | CC[NH+](C)CC.O=S(=O)([O-])C(F)(F)F [diethylmethylammonium trifluoromethanesulfonate] | – |
